# Calls of active or inactive are those of the source. How the calls were made is not given here.
# System: GENE-TOX genotoxicity assays, various organisms and cells
# Assay: GENE-TOX mutagenicity studies
# Conditions: for call: Assay Type: In vivo carcinogenicity studies, Assay Code: CCG+
# [1] = Species/Cell Type: Salmonella typhimurium (one or more of the five standard strains: TA98, TA100, TA1535, TA1537, and TA1538), Assay Type: Histidine reverse gene mutation, Ames assay, Assay Code: SALT, Evaluation Type: Evaluation A (Pre-1980)
# [2] = Species/Cell Type: Saccharomyces cerevisiae, Assay Type: Mitotic recombination or gene conversion, Assay Code: YEH-, Evaluation Type: Evaluation A (Pre-1980)
# [3] = Species/Cell Type: Salmonella typhimurium (one or more of the five standard strains: TA98, TA100, TA1535, TA1537, and TA1538), Assay Type: Histidine reverse gene mutation, Ames assay, Assay Code: SAL-, Evaluation Type: Evaluation A (Pre-1980)
# [4] = Species/Cell Type: Salmonella typhimurium (one or more of the five standard strains: TA98, TA100, TA1535, TA1537, and TA1538), Assay Type: Histidine reverse gene mutation, Ames assay, Assay Code: SAL+*, Activation: With metabolic activation, Evaluation Type: Evaluation A (Pre-1980)
# [5] = Species/Cell Type: Bacillus subtilis (H17 vs M45), Assay Type: Rec-assay, spot test, DNA effects (bacterial DNA repair), Assay Code: REW-, Evaluation Type: Evaluation A (Pre-1980)
# [6] = Species/Cell Type: Mouse, Sex: Male, Assay Type: Sperm morphology, Assay Code: SPI-, Evaluation Type: Evaluation A (Pre-1980)
# [7] = Species/Cell Type: Syrian hamster embryo (SHE) cells, Assay Type: Cell transformation, clonal assay, Assay Code: CTC-, Evaluation Type: Evaluation A (Pre-1980)
# [8] = Species/Cell Type: Salmonella typhimurium (one or more of the five standard strains: TA98, TA100, TA1535, TA1537, and TA1538), Assay Type: Histidine reverse gene mutation, Ames assay, Assay Code: SAL+, Evaluation Type: Evaluation A (Pre-1980)
# [9] = Species/Cell Type: Saccharomyces cerevisiae, Assay Type: Mitotic recombination or gene conversion, Assay Code: YEC-, Evaluation Type: Evaluation A (Pre-1980)
# [10] = Species/Cell Type: Nonhuman, Assay Type: Sister-chromatid exchange (SCE) in vitro, Assay Code: SC2+D, Dose Response: With dose response, Evaluation Type: Evaluation B (Post-1980)
# [11] = Species/Cell Type: Saccharomyces cerevisiae, Assay Type: Mitotic recombination or gene conversion, Assay Code: YEC+, Evaluation Type: Evaluation A (Pre-1980)
# [12] = Species/Cell Type: Human, Assay Type: Sister-chromatid exchange (SCE) in vitro, Assay Code: SC1+D, Dose Response: With dose response, Evaluation Type: Evaluation B (Post-1980)
# [13] = Species/Cell Type: Nonhuman, Evaluation Type: Evaluation A (Pre-1980)
compound,measurement,setting,value
CCCCCN(CCCC(=O)O)N=O,mutagenic call,[1],no conclusion
C1=CC2C3C=CC(C3)C2C1 (stereo not drawn),mutagenic call,[2],inactive; negative
same,mutagenic call,[3],inactive; negative
COc1cc(O)c2c(O)c3c(c4c2c1[C@]1(C4)C(C)=CCCC1(C)C)[C@H](O)[C@@]1(O)CC(=O)C(C(N)=O)=C(O)[C@@]1(O)C3=O,mutagenic call,[4],active; positive
[Be+2],mutagenic call,[5],inactive; negative
Nc1ccccc1Cl,mutagenic call,"Species/Cell Type: Escherichia coli polA (W3119 vs P3478), Assay Type: Rec-assay, DNA effects (bacterial DNA repair), Assay Code: RE1+, Evaluation Type: Evaluation A (Pre-1980)",active; positive
same,mutagenic call,[6],inactive; negative
same,mutagenic call,[2],inactive; negative
same,mutagenic call,[7],inactive; negative
O=c1ccn([C@H]2C[C@H](O)[C@@H](CO)O2)c(=O)[nH]1,mutagenic call,"Species/Cell Type: Drosophila melanogaster, Assay Type: Sex-linked recessive lethal gene mutation, Assay Code: SRLT, Evaluation Type: Evaluation A (Pre-1980)",no conclusion
CC(O)CO (stereo not drawn),mutagenic call,"Species/Cell Type: Human, Assay Type: Sister-chromatid exchange (SCE) in vitro, Assay Code: SC1-, Evaluation Type: Evaluation B (Post-1980)",inactive; negative
same,mutagenic call,[7],inactive; negative
O=[Se](=O)(O)O,mutagenic call,[5],inactive; negative
same,mutagenic call,"Species/Cell Type: Human diploid fibroblasts, Assay Type: Unscheduled DNA synthesis (UDS) in vitro, DNA effects, Assay Code: UDH+, Evaluation Type: Evaluation A (Pre-1980)",active; positive
same,mutagenic call,"Species/Cell Type: Human lymphocytes, Assay Type: Sister-chromatid exchange (SCE) in vitro, Assay Code: SCLT, Evaluation Type: Evaluation B (Post-1980)",no conclusion
same,mutagenic call,"Species/Cell Type: Human, Assay Type: Sister-chromatid exchange (SCE) in vitro, Assay Code: SC1T, Evaluation Type: Evaluation B (Post-1980)",no conclusion
same,mutagenic call,"Species/Cell Type: Nonhuman, Assay Type: Sister-chromatid exchange (SCE) in vitro, Assay Code: SC2+*, Activation: With metabolic activation, Evaluation Type: Evaluation B (Post-1980)",active; positive
same,mutagenic call,[8],active; positive
C=C(C)[C@H]1O[C@H]2CC[C@@]3(C)[C@@](O)(CC[C@H]4[C@@H]5OC(C)(C)[C@H]6C[C@@H]7C(=C)Cc8c(Cl)cc9[nH]c(c5c9c8[C@@]76O)[C@@]43C)[C@]23O[C@@H]3[C@H]1O,mutagenic call,[2],inactive; negative
same,mutagenic call,[1],no conclusion
FC(F)OC(Cl)C(F)(F)F (stereo not drawn),mutagenic call,[6],inactive; negative
same,mutagenic call,"Species/Cell Type: Nonhuman, Assay Type: Sister-chromatid exchange (SCE) in vitro, Assay Code: SC2T, Evaluation Type: Evaluation B (Post-1980)",no conclusion
same,mutagenic call,[1],no conclusion
C#CC(C)OC(=O)Nc1cccc(Cl)c1 (stereo not drawn) (tested in a mixture with another compound),mutagenic call,[9],inactive; negative
CN1CCN(CCCN2c3ccccc3Sc3ccc(C(F)(F)F)cc32)CC1,mutagenic call,"Species/Cell Type: Hordeum vulgare (barley), Assay Type: Chromosome aberrations, Assay Code: HOC+, Evaluation Type: Evaluation A (Pre-1980)",active; positive
same,mutagenic call,"Species/Cell Type: Mammalian polychromatic erythrocytes, Assay Type: Micronucleus test, chromosome aberrations, Assay Code: MNT+, Evaluation Type: Evaluation B (Post-1980)",active; positive
C=CCn1c(=O)n(C)c2c(=O)n(C)c(=O)n(C)c21,mutagenic call,"Species/Cell Type: Allium cepa, Assay Type: Chromosome aberrations, Assay Code: ALC+D, Dose Response: With dose response, Evaluation Type: Evaluation A (Pre-1980)",active; positive
CCCCCc1cc(O)cc(O)c1,mutagenic call,"Species/Cell Type: Human lymphocytes, Assay Type: Micronucleus test in vitro, chromosome aberrations, Assay Code: MN7+, Evaluation Type: Evaluation A (Pre-1980)",active; positive
O=C1c2cc(O)ccc2-c2ccc(O)c3cccc1c23,mutagenic call,[4],active; positive
ClCCl,mutagenic call,"Species/Cell Type: Drosophila melanogaster, Assay Type: Sex-linked recessive lethal gene mutation, Assay Code: SRL-, Evaluation Type: Evaluation A (Pre-1980)",inactive; negative
same,mutagenic call,"Species/Cell Type: Fischer rat embryo (RLV/1706) cells, Assay Type: Cell transformation, viral enhanced, Assay Code: CTR+, Evaluation Type: Evaluation A (Pre-1980)",active; positive
same,mutagenic call,"Species/Cell Type: Mammalian polychromatic erythrocytes, Assay Type: Micronucleus test, chromosome aberrations, Assay Code: MNT-, Evaluation Type: Evaluation B (Post-1980)",inactive; negative
same,mutagenic call,[10],active; positive
same,mutagenic call,[11],active; positive
same,mutagenic call,"Species/Cell Type: Saccharomyces cerevisiae, Assay Type: Mitotic recombination or gene conversion, Assay Code: YEH+, Evaluation Type: Evaluation A (Pre-1980)",active; positive
same,mutagenic call,"Species/Cell Type: Saccharomyces cerevisiae, Assay Type: Reverse gene mutation, Assay Code: YER+, Evaluation Type: Evaluation A (Pre-1980)",active; positive
same,mutagenic call,[8],active; positive
CCCCCCN(N=O)/C(N)=N/[N+](=O)[O-],mutagenic call,[1],no conclusion
CNc1nncc2ccccc12,mutagenic call,[12],active; positive
same,mutagenic call,"Species/Cell Type: Nonhuman, Assay Type: Sister-chromatid exchange (SCE) in vivo, Assay Code: SC3+, Evaluation Type: Evaluation B (Post-1980)",active; positive
COc1ccc([C@@H]2CC(=O)c3c(O)cc(O[C@@H]4O[C@H](CO)[C@@H](O)[C@H](O)[C@H]4O[C@@H]4O[C@@H](C)[C@H](O)[C@@H](O)[C@H]4O)cc3O2)cc1O,mutagenic call,"Species/Cell Type: Salmonella typhimurium, Assay Type: Forward and reverse gene mutation, body fluid assay, Assay Code: BFU-, Evaluation Type: Evaluation A (Pre-1980)",inactive; negative
CN(C)S(=O)(=O)N(SC(F)(Cl)Cl)c1ccccc1,mutagenic call,"Species/Cell Type: Bacillus subtilis (H17 vs M45), Assay Type: Rec-assay, spot test, DNA effects (bacterial DNA repair), Assay Code: REWT, Evaluation Type: Evaluation A (Pre-1980)",no conclusion
same,mutagenic call,[9],inactive; negative
c1cc2ccc3cc4c(c5ccc(c1)c2c35)CCC1OC41 (stereo not drawn),mutagenic call,"Species/Cell Type: Chinese hamster lung (V79) cells, Assay Type: Forward gene mutation at the HPRT or ouabain locus, Assay Code: V79-, Evaluation Type: Evaluation A (Pre-1980)",inactive; negative
same,mutagenic call,"Species/Cell Type: Mouse prostate cells, Assay Type: Cell transformation, Assay Code: CTM+, Evaluation Type: Evaluation A (Pre-1980)",active; positive
same,mutagenic call,[8],active; positive
O[C@@H]1C=Cc2ccc3cc4ccccc4cc3c2[C@H]1O,mutagenic call,"Species/Cell Type: Chinese hamster lung (V79) cells, Assay Type: Forward gene mutation at the HPRT or ouabain locus, Assay Code: V79-*, Activation: With metabolic activation, Evaluation Type: Evaluation A (Pre-1980)",inactive; negative
same,mutagenic call,[10],active; positive
same,mutagenic call,[1],no conclusion
S=P(N1CC1)(N1CC1)N1CC1,mutagenic call,"Species/Cell Type: Drosophila melanogaster, Assay Type: Sex-linked recessive lethal gene mutation, Assay Code: SRL+, Evaluation Type: Evaluation A (Pre-1980)",active; positive
same,mutagenic call,"Species/Cell Type: Human lymphocytes or leukocytes, Assay Type: Chromosome aberrations in vitro, Assay Code: CY7+, Evaluation Type: Evaluation A (Pre-1980)",active; positive
same,mutagenic call,"Species/Cell Type: Human lymphocytes, Assay Type: Sister-chromatid exchange (SCE) in vitro, Assay Code: SCL+D, Dose Response: With dose response, Evaluation Type: Evaluation B (Post-1980)",active; positive
same,mutagenic call,[12],active; positive
same,mutagenic call,"Species/Cell Type: Mammalian polychromatic erythrocytes, Assay Type: Micronucleus test, chromosome aberrations, Assay Code: MNT+, Evaluation Type: Evaluation A (Pre-1980)",active; positive
same,mutagenic call,"Species/Cell Type: Mouse (C3H/10T1/2) cells, Assay Type: Cell transformation, Assay Code: CTH+, Evaluation Type: Evaluation A (Pre-1980)",active; positive
same,mutagenic call,"Species/Cell Type: Mouse, Sex: Male, Assay Type: Heritable translocation test, chromosome aberrations, Assay Code: HTT+, Evaluation Type: Evaluation A (Pre-1980)",active; positive
same,mutagenic call,"Species/Cell Type: Mouse, Sex: Male, Assay Type: Sperm morphology, Assay Code: SPI+, Evaluation Type: Evaluation A (Pre-1980)",active; positive
same,mutagenic call,"Species/Cell Type: Nonhuman bone marrow, Assay Type: Chromosome aberrations, in vivo, Assay Code: CY#+D, Dose Response: With dose response, Evaluation Type: Evaluation A (Pre-1980)",active; positive
same,mutagenic call,"Species/Cell Type: Nonhuman, Assay Type: Chromosome aberrations in vitro, Assay Code: CY&+, Evaluation Type: Evaluation A (Pre-1980)",active; positive
same,call,[13],active; positive
same,mutagenic call,"Species/Cell Type: Nonhuman, Assay Type: Sister-chromatid exchange (SCE) in vitro, Assay Code: SC2+D, Dose Response: With dose response, Evaluation Type: Evaluation A (Pre-1980)",active; positive
same,mutagenic call,"Species/Cell Type: Rodents, Sex: Male, Assay Type: Dominant lethal test, Assay Code: DLT+D, Dose Response: With dose response, Evaluation Type: Evaluation A (Pre-1980)",active; positive
same,mutagenic call,[11],active; positive
same,mutagenic call,[8],active; positive
same,mutagenic call,"Species/Cell Type: Salmonella typhimurium, Assay Type: Forward and reverse gene mutation, host-mediated assay, Assay Code: HMA+, Evaluation Type: Evaluation A (Pre-1980)",active; positive
same,mutagenic call,"Species/Cell Type: Vicia faba, Assay Type: Chromosome aberrations, Assay Code: VIC+D, Dose Response: With dose response, Evaluation Type: Evaluation A (Pre-1980)",active; positive
COc1ccc(OC)c(N=Nc2c(O)ccc3ccccc23)c1,call,[13],active; positive
same,mutagenic call,[3],inactive; negative
